We go through two compounds from patent publication US8071640B2, “Urea oligomers, their preparation process and pharmaceutical compositions containing them” (Centre National de la Recherche Scientifique, priority 2001, dated 2011).

Like-named read-outs stand apart in the source and are kept apart here.

For data set [1], the system named is erythrocytes. As to the kind of experiment: Hemolysis test. It counts as cell-based, monkey (macaque). Particulars: 100 μg per ml of suspension (positive control); macaque erythrocytes, one hour at 37° C. How it is done:
A compound acting on the membranes of bacteria can potentially disturb the membranes of mammalian cells. The red blood cells or erythrocytes serves as a model of eukaryotic cells where the degree of membrane permeation is easily evaluated by measuring the quantity of hemoglobin released through the pores of the embrittled membranes and the concentration of which is directly proportional to the optical density at 450 nm.
The erythrocytes are prepared from freshly sampled monkey blood (macaque). The heparinized blood is centrifuged and washed three times with cold PBS and resuspended at 10% (v/v) in PBS. 10 μl of an aqueous solution of the products to be tested are added to 90 μl of suspension of red blood cells. The erythrocytes are incubated for one hour at 37° C. The suspension is centrifuged in order to recover the supernatant which is more or less red depending on the degree of hemolysis. The concentration of hemoglobin released in the supernatant is measured by the optical density at 450 nm. In the negative control the red blood cells are incubated in the absence of product and show an OD of 0.100% hemolysis is obtained with 100 μg cetylpyridinium chloride per ml of suspension. The degree of hemolysis is evaluated with respect to the positive control for the different concentrations of the products tested.

The test system of data set [2] is E. coli D363. The format is cell-based. How it is done: (§1) The compounds tested all form part of the polyurea class and were obtained in the laboratory by chemical route. Tests for the inhibition of the growth of bacteria and fungi were carried out in liquid tests. The specific activity of each molecule is expressed by the minimal inhibitory concentration on the growth of the bacteria and/or fungi, called MIC. The MIC is a value specific to each compound and varies as a function of the organisms tested. It should be noted that the MIC values follow a logarithmic progression, which is due to a two-by-two dilution of the compounds tested in a series of tests. The molecules tested were presented in the form of salts which are soluble in water and thus the culture medium of the microorganisms.
(§2) For carrying out the tests, 96-well plates were used. Each well contains 90 μl of a suspension of bacteria diluted in PB medium (Poor Broth, Difco) in order to have a final concentration of 1 mOD. 10 μl of compound in solution in sterile water at concentrations ranging from 1 mg/ml to 2 μg/ml are added to the tests. The plates are placed under stirring at 29° C. for 24 hours. The growth of the bacteria is measured by measuring the turbidity of the culture medium and measuring the OD at 595 nm. The value of the MIC corresponds to the concentration of the substances to be tested where no growth of bacteria is noted (OD=0).

Data set [3] concerns Micrococcus luteus. It counts as cell-based. How it is done: as §1, §2
For data set [4], the system named is Pseudomonas aeruginosa. The format is cell-based. How it is done: as §1, §2
Data set [5] concerns Salmonella cloacae. The format is cell-based. How it is done:
as §1, §2

Data set [6] has as its system Staphylococcus aureus. It counts as cell-based. The settings on record: 24 h. How it is done:
as §1, §2

Data set [7] concerns Aspergillus fumigatus. The format is cell-based. How it is done:
as §1, with “microorganisms. The antifungal tests are carried out in similar fashion with ½ PDB (Potato dextrose broth, Difco) as culture medium and 10,000 spores per ml of culture. An optical control under a reverse microscope is necessary in the case of the fungi in order to evaluate the formation of the mycelia of the filamentous fungi (Aspergillus fumigatus, Neurospora crassa). The CMC is determined after culture for 48 hours at 29° C. and corresponds to the concentration where no formation of mycelium is observed.” for “microorganisms.”

The subject of data set [8] is Neurospora crassa. The format is cell-based. How it is done:
as §1, with “microorganisms. The antifungal tests are carried out in similar fashion with ½ PDB (Potato dextrose broth, Difco) as culture medium and 10,000 spores per ml of culture. An optical control under a reverse microscope is necessary in the case of the fungi in order to evaluate the formation of the mycelia of the filamentous fungi (Aspergillus fumigatus, Neurospora crassa). The CMC is determined after culture for 48 hours at 29° C. and corresponds to the concentration where no formation of mycelium is observed.” for “microorganisms.”

For the compound `CCCCCCCCCCCCCCCC[n+]1ccccc1` [cetylpyridinium chloride], the hemolysis in data set [1] was found to be 100%.
Regarding “H-YLVFKAVY-NH2 [Peptide L (control), H-Tyr-Leu-Val-Phe-Lys-Ala-Val-Tyr-NH2]”, the Minimum inhibitory concentration in data set [2] (D363, 24 h) was determined as 2.6 µM; in data set [2] (E. coli D363, PB medium, 24 hours at 29° C.), 3.8 mg/L; in data set [3] (24 h), 2.6 µM; in data set [3] (Micrococcus luteus, PB medium, 24 hours at 29° C.) it was 3.8 mg/L; in data set [4] (24 h), 82 µM; in data set [4] (Pseudomonas aeruginosa, PB medium, 24 hours at 29° C.), 121 mg/L. For the same compound, the Minimum inhibitory concentration in data set [5] (24 h) was 2.6 µM; in data set [5] (Salmonella cloacae, PB medium, 24 hours at 29° C.), 3.8 mg/L; in data set [6], greater than 121 mg/L; in data set [7] (48 h), 82 µM; in data set [7] (Aspergillus fumigatus, ½ PDB, 10,000 spores per ml, 48 hours at 29° C.), 121 mg/L; in data set [8] (48 h), 20 µM. The Minimum inhibitory concentration in data set [8] (Neurospora crassa, ½ PDB, 10,000 spores per ml, 48 hours at 29° C.) was determined as 30 mg/L.
